What all share (type): cell-based
Settings in all cases: Homo sapiens; PC-3 cell

One test deals with p-S6K (mTORC1). The test can be described thus: Immunoblotting, PI3K/Akt/mTOR signal transduction, p-S6K. The text has this: (§1) For immunoblotting experiments, A549 cells were inoculated to the wells of a 6-well culture plate and cultured overnight. […] Proteins were separated by SDS-PAGE electrophoresis and transferred to PVDF membrane. Protein expression was immunobloted by various primary antibodies and detected by Immobilon Western Chemiluminescent HRP Substrate (Millipore). Antibody against Akt, phosphor-Akt (Ser473), phosphor-Akt (Thr308), p70 S6 Kinase, phosphor-p70 S6 Kinase (Thr389), 4E-BP1, and phosphor-4E-BP1 (Thr37/46) were purchased form Cell Signaling Technology.

The test system of a further test is p-Akt S473 (mTORC2). Description: Immunoblotting, PI3K/Akt/mTOR signal transduction, p-Akt S473.
Source text: as §1
Background: A western blot detects proteins with antibodies after separation by electrophoresis.

In a further test the test system is p-Akt T308 (PI3K). The test can be described thus: Immunoblotting, PI3K/Akt/mTOR signal transduction, p-Akt T308.
Source text: as §1

Where only a bound is given, the exact number is not on record here.

One may read the IC50 as the concentration at which inhibition is half-maximal. Read a low IC50 as inhibition by little substance.

For `CO[C@H]1C[C@@H]2CC[C@@H](C)[C@@](O)(O2)C(=O)C(=O)N2CCCC[C@H]2C(=O)O[C@H]([C@H](C)C[C@@H]2CC[C@@H](O)[C@H](OC)C2)CC(=O)[C@H](C)/C=C(\C)[C@@H](O)[C@@H](OC)C(=O)[C@H](C)C[C@H](C)/C=C/C=C/C=C/1C` [Rapamycin, rapamycin, reference compound], the IC50 in the test with p-S6K (mTORC1) is under 10 nM; in the test with p-Akt S473 (mTORC2) it was under 10 nM; in the test with p-Akt T308 (PI3K), over 1000 nM.

Source of the values: patent US9315491B2 (DEVELOPMENT CENTER FOR BIOTECHNOLOGY, priority 2009, dated 2016).
